pIC50: −log10 of the molar value.
Legend:
A549 [1] = assay: Antiproliferative activity against human A549 cells after 24 hrs by BrdU incorporation assay; type: functional, cell-based; conditions: A549, 24 h
WI-38 = assay: Antiproliferative activity against human WI38 cells after 24 hrs by BrdU incorporation assay; type: cell-based; conditions: WI-38, 24 h
A549 [2] = assay: Induction of cell cycle arrest in human A549 cells assessed as accumulation at G1 phase at 1 uM after 24 hrs by FITC-labeled anti-BrdU antibody/7AAD staining based FACS calibur flow cytometric analysis (reference value: 65.9 %); type: functional
A549 [3] = assay: Induction of cell cycle arrest in human A549 cells assessed as accumulation at sub G1 phase at 1 uM after 24 hrs by FITC-labeled anti-BrdU antibody/7AAD staining based FACS calibur flow cytometric analysis (reference value: 0.82 %); type: functional
A549 [4] = assay: Induction of cell cycle arrest in human A549 cells assessed as accumulation at G2/M phase at 1 uM after 24 hrs by FITC-labeled anti-BrdU antibody/7AAD staining based FACS calibur flow cytometric analysis (reference value: 12.61 %); type: functional
A549 [5] = assay: Induction of cell cycle arrest in human A549 cells assessed as accumulation at S phase at 1 uM after 24 hrs by FITC-labeled anti-BrdU antibody/7AAD staining based FACS calibur flow cytometric analysis (reference value: 20.9 %); type: functional
A549 [6] = assay: Induction of cell cycle arrest in human A549 cells assessed as accumulation at G1 phase at 100 uM after 24 hrs by FITC-labeled anti-BrdU antibody/7AAD staining based FACS calibur flow cytometric analysis (reference value: 65.9 %); type: functional
A549 [7] = assay: Induction of cell cycle arrest in human A549 cells assessed as accumulation at S phase at 100 uM after 24 hrs by FITC-labeled anti-BrdU antibody/7AAD staining based FACS calibur flow cytometric analysis (reference value: 20.9 %); type: functional
A549 [8] = assay: Induction of cell cycle arrest in human A549 cells assessed as accumulation at G2/M phase at 100 uM after 24 hrs by FITC-labeled anti-BrdU antibody/7AAD staining based FACS calibur flow cytometric analysis (reference value: 12.61 %); type: functional
A549 [9] = assay: Induction of cell cycle arrest in human A549 cells assessed as accumulation at sub G1 phase at 100 uM after 24 hrs by FITC-labeled anti-BrdU antibody/7AAD staining based FACS calibur flow cytometric analysis (reference value: 0.82 %); type: functional

| pIC50 (A549 [1]) | SMILES | pIC50 (WI-38) | further results |
| --- | --- | --- | --- |
| 4.63 | Cc1ccc(NC(=O)CN2CCN(c3cc4c(cc3F)c(=O)c(C(=O)O)cn4C3CC3)CC2)cc1 | < 4.00 | – |
| < 4.00 | O=C(CN1CCN(c2cc3c(cc2F)c(=O)c(C(=O)O)cn3C2CC2)CC1)Nc1ccccc1 | < 4.00 | – |
| < 4.00 | COc1ccccc1NC(=O)CN1CCN(c2cc3c(cc2F)c(=O)c(C(=O)O)cn3C2CC2)CC1 | < 4.00 | – |

The next lines start with the compound.

| SMILES | pIC50 (A549 [1]) | pIC50 (WI-38) | further results |
| --- | --- | --- | --- |
| COc1cccc2c1C(=O)c1c(O)c3c(c(O)c1C2=O)C[C@@](O)(C(=O)CO)C[C@@H]3O[C@H]1C[C@H](N)[C@H](O)[C@H](C)O1 [DOXORUBICIN] | – | 4.91 | Activity (A549 [2]): 56.5%; Activity (A549 [3]): 6.75%; Activity (A549 [4]): 22.5%; Activity (A549 [5]): 15.4% |
| O=C(O)c1cn(C2CC2)c2cc(N3CCNCC3)c(F)cc2c1=O [CIPROFLOXACIN] | < 4.00 | < 4.00 | Activity (A549 [6]): 61%; Activity (A549 [7]): 3.8%; Activity (A549 [8]): 16.8%; Activity (A549 [9]): 9.5% |
| O=C(CN1CCN(c2cc3c(cc2F)c(=O)c(C(=O)O)cn3C2CC2)CC1)NC1CCCCC1 | 4.68 | < 4.00 | – |
